23 compounds from patent US9617242B2, “Histone demethylase inhibitors” (priority 2012, dated 2017) can be followed below.

Where a name gives a salt, the structure may show the parent alone.

Experiment [1] deals with JMJD2C (Homo sapiens (Human), UniProt Q9H3R0). In words: JMJD2C in vitro enzyme inhibition assay (TR-FRET). The class given is biochemical.
The target of experiment [2] is Jarid1B (Homo sapiens (Human), UniProt Q9UGL1). In words: Jarid1B in vitro enzyme inhibition assay (TR-FRET). The class given is biochemical. For orientation: In TR-FRET formats the signal depends on donor and acceptor labels being close together.
Jarid1B, sequence (Q9UGL1 2-751): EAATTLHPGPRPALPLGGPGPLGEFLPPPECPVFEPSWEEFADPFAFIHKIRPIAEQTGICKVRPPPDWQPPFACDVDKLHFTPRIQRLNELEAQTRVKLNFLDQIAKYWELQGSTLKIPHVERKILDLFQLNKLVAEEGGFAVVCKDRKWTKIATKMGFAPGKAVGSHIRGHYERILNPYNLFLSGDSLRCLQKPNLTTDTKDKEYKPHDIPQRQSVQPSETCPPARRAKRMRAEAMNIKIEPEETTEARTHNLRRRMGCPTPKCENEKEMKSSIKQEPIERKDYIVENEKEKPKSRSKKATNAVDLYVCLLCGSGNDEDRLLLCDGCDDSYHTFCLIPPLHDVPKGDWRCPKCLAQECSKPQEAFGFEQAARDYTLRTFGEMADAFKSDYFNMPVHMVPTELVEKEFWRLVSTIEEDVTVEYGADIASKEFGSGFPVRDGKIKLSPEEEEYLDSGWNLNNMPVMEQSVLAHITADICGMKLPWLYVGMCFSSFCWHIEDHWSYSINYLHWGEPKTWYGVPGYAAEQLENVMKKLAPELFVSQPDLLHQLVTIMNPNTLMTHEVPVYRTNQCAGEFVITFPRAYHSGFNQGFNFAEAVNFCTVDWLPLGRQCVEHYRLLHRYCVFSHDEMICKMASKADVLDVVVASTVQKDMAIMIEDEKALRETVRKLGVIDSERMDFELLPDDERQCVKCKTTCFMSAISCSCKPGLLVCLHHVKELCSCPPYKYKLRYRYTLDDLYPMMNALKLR
For experiment [3], the target named is Jarid1A (Homo sapiens (Human), UniProt P29375). In words: Jarid1A in vitro enzyme inhibition assay (TR-FRET). In kind it is biochemical.
Jarid1A, sequence (P29375 1-1090): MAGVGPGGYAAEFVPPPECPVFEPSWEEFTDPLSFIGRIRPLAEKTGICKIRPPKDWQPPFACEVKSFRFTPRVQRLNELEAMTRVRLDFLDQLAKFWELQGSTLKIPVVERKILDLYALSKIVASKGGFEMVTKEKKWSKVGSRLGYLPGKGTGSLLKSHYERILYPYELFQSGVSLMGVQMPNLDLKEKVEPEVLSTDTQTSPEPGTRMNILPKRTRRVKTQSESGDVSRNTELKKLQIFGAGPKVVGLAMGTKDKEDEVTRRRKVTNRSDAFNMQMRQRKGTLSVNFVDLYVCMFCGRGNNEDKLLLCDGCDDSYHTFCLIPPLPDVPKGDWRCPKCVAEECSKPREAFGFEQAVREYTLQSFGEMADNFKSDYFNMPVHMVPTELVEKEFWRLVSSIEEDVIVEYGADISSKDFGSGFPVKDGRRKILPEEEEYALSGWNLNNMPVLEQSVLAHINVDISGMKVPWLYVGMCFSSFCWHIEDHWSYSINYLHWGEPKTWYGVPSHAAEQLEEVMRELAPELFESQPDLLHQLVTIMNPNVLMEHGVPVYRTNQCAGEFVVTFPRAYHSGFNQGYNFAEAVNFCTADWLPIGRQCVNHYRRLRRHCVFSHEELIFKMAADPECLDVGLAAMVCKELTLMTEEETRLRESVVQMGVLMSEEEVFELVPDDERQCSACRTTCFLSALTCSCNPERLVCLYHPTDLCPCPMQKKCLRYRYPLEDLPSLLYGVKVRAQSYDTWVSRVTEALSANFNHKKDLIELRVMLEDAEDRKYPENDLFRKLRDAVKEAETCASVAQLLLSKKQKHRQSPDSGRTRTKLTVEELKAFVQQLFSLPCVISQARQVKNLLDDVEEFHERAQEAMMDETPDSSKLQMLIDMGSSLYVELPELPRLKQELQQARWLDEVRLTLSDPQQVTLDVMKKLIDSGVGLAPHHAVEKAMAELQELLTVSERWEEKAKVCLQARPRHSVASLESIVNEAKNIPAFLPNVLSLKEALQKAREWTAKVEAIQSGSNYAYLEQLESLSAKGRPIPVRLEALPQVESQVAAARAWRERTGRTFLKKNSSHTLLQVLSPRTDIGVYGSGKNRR
Experiment [4] deals with KDM5A/B. Kind of experiment: In vitro cell-based assay: tri-methyl H3K4 immuno-blotting in ZR-75-1 breast cancer cells. The settings on record: 72 hours, read-out: Cellular IC50. The procedure: This quantitative immuno-blotting assay measures the amount tri-methylated histone H3 at amino acid Lysine number 4, a specific substrate […] of the direct enzymatic activity of the histone demethylases KDM5A and KDM5B from extracts of the ZR-75-1 breast cancer cell line.
This assay is a fluorometric immunoassay for the quantification of tri-methyl H3K4 extracted from cells treated with test compound and is used as a measure of the cellular inhibition of KDM5A/B.
Extracts were prepared containing all of the cellular histone material using detergent based lysis and sonication methods. These lysates were subsequently normalized for total protein content using a colorimetric bicinchonic acid assay (MicroBCA Pierce/Thermo Scientific). Normalized cell extracts were then subjected to typical immuno-blotting procedures using NuPage reagents (Life Technologies). Electrophoretically separated histones were then transferred and immobilized using polyvinylidene difluoride membrane (Immobilon-FL Millipore). The amount of tri-methylated lysine 4 of histone H3 was detected using an antibody specific to the tri-methylated state (Cell Signaling Technologies) and quantified on an infrared imager using a densitometry software package (Odyssey CLx, Image Studio, Li-Cor). This background subtracted densitometry value was reported as a ration of the GAPDH amount for that sample and then calculated as a percent of the DMSO treated sample. The software package XL-fit (IDBS) was then used to calculate a relative IC50 value for the dilution series of a given test compound according to the equation: fit=(D+((Vmax*(x^n))/((x^n)+(Km^n)))).

JMJD2C, sequence (Q9H3R0 2-372): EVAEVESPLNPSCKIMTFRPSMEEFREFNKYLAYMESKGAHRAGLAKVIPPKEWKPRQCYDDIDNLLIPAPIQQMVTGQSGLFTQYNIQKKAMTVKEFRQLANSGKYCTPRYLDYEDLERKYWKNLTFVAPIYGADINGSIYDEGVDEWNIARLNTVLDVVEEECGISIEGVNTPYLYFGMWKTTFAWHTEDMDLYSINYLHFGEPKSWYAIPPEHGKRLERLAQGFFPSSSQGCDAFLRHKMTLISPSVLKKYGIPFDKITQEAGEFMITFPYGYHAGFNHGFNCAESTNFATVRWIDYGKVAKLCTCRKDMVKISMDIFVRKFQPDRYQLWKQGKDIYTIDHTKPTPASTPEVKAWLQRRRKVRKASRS

With `Cn1nc(Nc2cnccc2C(=O)O)c2ccccc21` [Example 1, 3-[(1-methyl-1H-indazol-3-yl)amino]pyridine-4-carboxylic acid], the concentration for half-maximal inhibition (IC50) (usually the midpoint of a concentration-inhibition curve) in experiment [1] is below 100 nM; in experiment [2] it was below 100 nM; in experiment [3], below 100 nM; in experiment [4] it was 1000 to 10000 nM.
Regarding `O=C(O)c1ccncc1Nc1noc2ccccc12` [Example 3, 3-(1,2-benzoxazol-3-ylamino]pyridine-4-carboxylic acid], the 50% inhibitory concentration (IC50) in experiment [1], in experiment [2] and in experiment [3] was below 100 nM in each case.
Turning to `Cn1nc(Nc2cnccc2C(=O)O)c2c(F)cccc21` [Example 13, 3-[(4-fluoro-1-methyl-1H-indazol-3-yl)amino]pyridine-4-carboxylic acid], the IC50 in experiment [1], in experiment [2] and in experiment [3] was below 100 nM throughout.
For the compound `CCC(C)n1nc(Nc2cnccc2C(=O)O)c2cc(F)ccc21` (stereo not drawn) [Example 26, 3-{[5-fluoro-1-(butan-2-yl)-1H-indazol-3-yl]amino}pyridine-4-carboxylic acid], the IC50 in experiment [2] was below 100 nM; in experiment [3], below 100 nM; in experiment [4], 1000 to 10000 nM.
For the compound `O=C(O)c1ccncc1Nc1nn(CC2CCC2)c2ccc(F)cc12` [Example 28, 3-{[1-(cyclobutylmethyl)-5-fluoro-1H-indazol-3-yl]amino}pyridine-4-carboxylic acid], the figures for the IC50 in experiment [2], in experiment [3] and in experiment [4] were below 100 nM, below 100 nM and 100 to 1000 nM, respectively.
As to `O=C(O)c1ccncc1Nc1nn(C2CCCC2)c2ccc(F)cc12` [Example 29, 3-[(1-cyclopentyl-5-fluoro-1H-indazol-3-yl)amino]pyridine-4-carboxylic acid], the results for the IC50 in experiment [2], in experiment [3] and in experiment [4] were below 100 nM, below 100 nM and 100 to 1000 nM, respectively.
As for `O=C(O)c1ccncc1Nc1nn(CC2CCCC2)c2ccc(F)cc12` [Example 30, 3-{[1-(cyclopentylmethyl)-5-fluoro-1H-indazol-3-yl]amino}pyridine-4-carboxylic acid], the IC50 in experiment [2] was below 100 nM; in experiment [3], below 100 nM; in experiment [4] it was 1000 to 10000 nM.
In the case of `O=C(O)c1ccncc1Nc1nn(CCC2CC2)c2ccc(F)cc12` [Example 31, 3-{[1-(cyclopropylethyl)-5-fluoro-1H-indazol-3-yl]amino}pyridine-4-carboxylic acid], the IC50 in experiment [2] was below 100 nM; in experiment [3] it was below 100 nM; in experiment [4], 1000 to 10000 nM.
Turning to `O=C(O)c1ccncc1Nc1nn(CCC(F)(F)F)c2ccc(F)cc12` [Example 32, 3-{[5-fluoro-1-(3,3,3-trifluoropropyl)-1H-indazol-3-yl]amino}pyridine-4-carboxylic acid], the half-maximal inhibitory concentration (IC50) is below 100 nM in experiment [2], below 100 nM in experiment [3] and 100 to 1000 nM in experiment [4].
Take `CCCn1nc(Nc2cnccc2C(=O)O)c2cc(Cl)ccc21` [Example 33, 3-[(5-chloro-1-propyl-1H-indazol-3-yl)amino]pyridine-4-carboxylic acid]: the 50% inhibitory concentration (IC50) in experiment [2] was below 100 nM; in experiment [3], below 100 nM; in experiment [4], 100 to 1000 nM.
As for `O=C(O)c1ccncc1Nc1nn(CC2CC2)c2ccc(Cl)cc12` [Example 34, 3-{[5-chloro-1-(cyclopropylmethyl)-1H-indazol-3-yl]amino}pyridine-4-carboxylic acid], the IC50 in experiment [2] was below 100 nM; in experiment [3], below 100 nM; in experiment [4], 1000 to 10000 nM.
As to `O=C(O)c1ccncc1Nc1nn(CCC(F)(F)F)c2ccc(Cl)cc12` [Example 35, 3-{[5-chloro-1-(3,3,3-trifluoropropyl)-1H-indazol-3-yl]amino}pyridine-4-carboxylic acid], the IC50 in experiment [2] was below 100 nM; in experiment [3] it was below 100 nM; in experiment [4], 100 to 1000 nM.
As to `Cc1ccc2c(c1)c(Nc1cnccc1C(=O)O)nn2CC1CC1` [Example 37, 3-{[1-(cyclopropylmethyl)-5-methyl-1H-indazol-3-yl]amino}pyridine-4-carboxylic acid], the figures for the 50% inhibitory concentration (IC50) in experiment [2], in experiment [3] and in experiment [4] were below 100 nM, below 100 nM and 100 to 1000 nM, respectively.
With `CN(C)CCOCCn1nc(Nc2cnccc2C(=O)O)c2cc(Cl)ccc21` [Example 40, 3-[(1-{2-[2-(dimethylamino)ethoxy]ethyl}-5-chloro-1H-indazol-3-yl)amino]pyridine-4-carboxylic acid, trifluoroacetic acid salt], the half-inhibitory concentration (IC50) in experiment [1], in experiment [2] and in experiment [3] was below 100 nM each time.
On to `CN1CCC(CCn2nc(Nc3cnccc3C(=O)O)c3cc(F)ccc32)CC1` [Example 41, 3-({5-fluoro-1-{2-(1-methylpiperidin-4-yl)ethyl]-1H-indazol-3-yl]amino)pyridine-4-carboxylic acid, trifluroacetic acid salt], for which the IC50 in experiment [1], in experiment [2] and in experiment [3] was below 100 nM in each case.
Regarding `O=C(O)c1ccncc1Nc1nn(CCCCCO)c2ccc(F)cc12` [Example 44, 3-{[5-fluoro-1-(5-hydroxypentyl)-1H-indazol-3-yl]amino}pyridine-4-carboxylic acid], the IC50 in experiment [1], in experiment [2] and in experiment [3] was below 100 nM throughout.
Turning to `CCCn1nc(Nc2cnccc2C(=O)O)c2cccc(C)c21` [Example 45], the results for the IC50 in experiment [1] and in experiment [4] were 100 to 1000 nM and 1000 to 10000 nM, respectively.
As for `O=C(O)c1ccncc1Nc1nn(CC(O)C(F)(F)F)c2ccc(F)cc12` (stereo not drawn) [Example 55, 3-{[5-fluoro-1-(3,3,3-trifluoro-2-hydroxypropyl)-1H-indazol-3-yl]amino}pyridine-4-carboxylic acid], the half-maximal inhibitory concentration (IC50) in experiment [1], in experiment [2] and in experiment [3] was below 100 nM each time.
Consider `O=C(O)c1ccncc1Nc1nn(CCN2CCOCC2)c2ccc(F)cc12` [Example 56, 3-({5-fluoro-1-[2-(morpholin-1-yl)ethyl]-1H-indazol-3-yl}amino)pyridine-4-carboxylic acid], for which the IC50 in experiment [1], in experiment [2] and in experiment [3] was below 100 nM each time.
For the compound `O=C(O)c1ccncc1Nc1cn(CCC(F)(F)F)c2ccc(Cl)cc12` [Example 59, 3-{[5-chloro-1-(3,3,3-trifluoropropyl)-1H-indol-3-yl]amino}pyridine-4-carboxylic acid], the IC50 in experiment [2] is below 100 nM; in experiment [3], below 100 nM; in experiment [4], 1000 to 10000 nM.
For `O=C(O)c1ccncc1Nc1nn(C2CCOC2)c2ccc(Cl)cc12` (stereo not drawn) [Example 69, 3-{[5-chloro-1-(tetrahydrofuran-3-yl)-1H-indazol-3-yl]amino}pyridine-4-carboxylic acid], the IC50 in experiment [2] was below 100 nM; in experiment [3], below 100 nM; in experiment [4] it was 1000 to 10000 nM.
As to `N#CNC(=O)c1ccncc1Nc1nn(CCN2CCCC2)c2ccc(F)cc12` [Example 77, N-cyano-3-({5-fluoro-1-[2-(pyrrolidin-1-yl)ethyl]-1H-indazol-3-yl}amino)pyridine-4-carboxamide], the concentration for half-maximal inhibition (IC50) in experiment [1], in experiment [2] and in experiment [3] was below 100 nM in each case.
For `O=C(O)c1ccncc1Nc1nn(CCN2CCCC2)c2ccc(Cl)cc12` [Example 78, 3-({5-chloro-1-[2-(pyrrolidin-1-yl)ethyl]-1H-indazol-3-yl}amino)pyridine-4-carboxylic acid], the IC50 in experiment [1], in experiment [2] and in experiment [3] was below 100 nM each time.
